Where two headings read alike, the source gives them in different places.
Assay: Plasma pharmacokinetics of lorlatinib at steady state (LC-MS/MS, non-compartmental analysis)
Format: in vivo, human
Details: for Lambda_z: in h-1 (unit assumed); for Tlag: unit assumed; for Cmax: read-out: Cmax; for AUC: read-out: AUC_TAU
Text: Lorlatinib was isolated from human plasma by a liquid-iquid extraction procedure. […] A linear-log trapezoidal method was used [NT] A best-fit method was used to estimate terminal elimination and to extrapolate any plasma concentration versus time profiles to compute [NT].

[1] = Cycle 1 Day 15, Cohort A1, 115 mg/m2 per dose, individual patients
[2] = Cycle 1 Day 15, Cohort A1, 115 mg/m2 per dose, individual patients, in h (unit assumed)
[3] = Cycle 1 Day 15, Cohort A1, 115 mg/m2 per dose, individual patients, in ng/mL
[4] = Cycle 1 Day 15, Cohort A2, 100 mg per dose, individual patients
[5] = Cycle 1 Day 15, Cohort A2, 150 mg per dose, individual patients
[6] = Cycle 1 Day 15, Cohort A2, 150 mg per dose, individual patients, in h (unit assumed)
[7] = Cycle 1 Day 15, patient N0773, Cohort B2, 115 mg/m2 per dose, Dose 75
[8] = Cycle 1 Day 15, patient N0773, Cohort B2, 115 mg/m2 per dose, Dose 75, in h (unit assumed)
[9] = human, in vivo, 115 mg/m2, Cohort A1, 115 mg/m2 per dose, C1D15, Geometric Mean, N 6
[10] = human, in vivo, 115 mg/m2, Cohort A1, 115 mg/m2 per dose, C1D15, Median, N 6
[11] = human, in vivo, 115 mg/m2, Cohort B2, 115 mg/m2 per dose, C1D15, Geometric Mean, N 6
[12] = human, in vivo, 115 mg/m2, Cohort B2, 115 mg/m2 per dose, C1D15, Median, N 6
[13] = human, in vivo, 115 mg/m2, Cycle 1 Day 1, Cohort B2, 115 mg/m2 per dose

Compound C[C@H]1Oc2cc(cnc2N)-c2c(nn(C)c2C#N)CN(C)C(=O)c2ccc(F)cc21 [Lorlatinib, (10R)-7-amino-12-fluoro-2,10,16-trimethyl-15-oxo-10,15,16,17-tetrahydro-2H-8,4-(metheno)pyrazolo[4,3-h][2,5,11]-benzoxadiazacyclotetradecine-3-carbonitrile] has a Swing [1] of 8.184, a Swing_Tau [1] of 8.184 and a Tlast [1] of 24 h. The Vz_F [1] was 274.2, the HL_Lambda_z [2] was 12 and the Tmin [2] was 0. The Lambda_z [1] was 0.05778, the Cavg [3] was 341.9 and the Clast [3] was 147. The Clast_pred [3] was 144.8, the Cmin [3] was 147 and the Ctau [3] was 147. For the same compound, the Tlag [1] was 0 h, the AUC_TAU_%Extrap [4] was 0% and the Tlast [4] was 24 h. It also gave a Tmax (Cycle 1 Day 15, Cohort A2, 100 mg per dose, individual patients, in h (unit assumed)) of 2, a Tmax (Cycle 1 Day 15, Cohort A2, 100 mg per dose, individual patients, listed as lorlatinib, in h (unit assumed)) of 2 and a Tlag [4] of 0 h. It also gave an AUC_TAU_%Extrap [5] of 0%, a Tlast [5] of 24 h and an MRTINF_obs [6] of 20.95. For the same compound, the MRTINF_pred [6] was 20.85, the Tmax [6] was 2 and the Tmin [6] was 0. The Clast_pred (Cycle 1 Day 15, Cohort A2, 150 mg per dose, individual patients, in ng/mL) was 129.9, the AUCINF_pred (Cycle 1 Day 15, Cohort A2, 150 mg per dose, individual patients, in ng·h/mL (unit assumed)) was 8874 and the Tlag [5] was 0 h. For the same compound, the AUMC_TAU [7] was 28139.0694, the Accumulation_Index [7] was 1.002 and the CLss_F [7] was 10.79. The Cmax_D [7] was 23.73, the Fluctuation% [7] was 464.7 and the Fluctuation%_Tau [7] was 613.5. For the same compound, the Swing [7] was 3.101, the Swing_Tau [7] was 559.2 and the Tlast [7] was 6 h. For the same compound, the Vz_F [7] was 40.19, the HL_Lambda_z [8] was 2.582 and the Tmin [8] was 6. The Lambda_z [7] was 0.2684, the Cavg (Cycle 1 Day 15, patient N0773, Cohort B2, 115 mg/m2 per dose, Dose 75, in ng/mL) was 289.6 and the Tlag [7] was 0 h. The Tmax (human, in vivo, 60 mg/m2, Cohort A1, 60 mg/m2 per dose, C1D15, Geometric Mean, N 3, read-out: Tmax) was 1.59 h, the Cmax (human, in vivo, 75 mg/m2, Cycle 1 Day 1, Cohort A1, 75 mg/m2 per dose, individual patients) was 467 ng/mL and the AUC [9] was 8640 ng·h/mL. The Cmax [9] was 1210 ng/mL, the Tmax (human, in vivo, 115 mg/m2, Cohort A1, 115 mg/m2 per dose, C1D15, Geometric Mean, N 6, read-out: Tmax) was 1.59 h and the AUC [10] was 8570 ng·h/mL. For the same compound, the Cmax [10] was 1280 ng/mL, the Tmax (human, in vivo, 115 mg/m2, Cohort A1, 115 mg/m2 per dose, C1D15, Median, N 6, read-out: Tmax) was 1.5 h and the AUC [11] was 7950 ng·h/mL. It also gave a Cmax [11] of 1460 ng/mL, a Tmax (human, in vivo, 115 mg/m2, Cohort B2, 115 mg/m2 per dose, C1D15, Geometric Mean, N 6, read-out: Tmax) of 1.12 h and an AUC [12] of 6940 ng·h/mL. For the same compound, the Cmax [12] was 1560 ng/mL, the Tmax (human, in vivo, 115 mg/m2, Cohort B2, 115 mg/m2 per dose, C1D15, Median, N 6, read-out: Tmax) was 1 h and the MRT last (human, in vivo, 115 mg/m2, Cycle 1 Day 1, Cohort A1, 115 mg/m2 per dose) was 11.1 h. For the same compound, the Tmax (human, in vivo, 115 mg/m2, Cycle 1 Day 1, Cohort A1, 115 mg/m2 per dose, read-out: Tmax) was 1 h, the AUC(0-t) [13] was 17700 ng·h/mL and the MRT last [13] was 8.5 h.
